Consider 15 compounds from patent US5223485A, “Anaphylatoxin-receptor ligands” (Abbott Laboratories, priority 1991, dated 1993).

Bridge positions count the residues as written; N and C are the ends. Square brackets hold non-standard residues; d marks the D form. Peptide text beside a SMILES is read from it. * marks the point of attachment. X3 = CC(C)C[C@H](NC[C@H](C)N*)C(=O)N[C@H](C)C(=O)N[C@@H](CCCNC(=N)N)C(=O)O; X2 = C[C@H](CN[C@@H](CCCNC(=N)N)C(=O)O)N*; 2Nal = N[C@@H](Cc1ccc2ccccc2c1)C(=O)O; NEtPhe = CCN[C@@H](Cc1ccccc1)C(=O)O; Cha = N[C@@H](CC1CCCCC1)C(=O)O; dPen = CC(C)(S)[C@@H](N)C(=O)O; dNMeA = CN[C@H](C)C(=O)O; Boc = CC(C)(C)OC(=O)*; Bz = O=C(c1ccccc1)*; Ethyl(2-NH2) = NCC*; For = O=C*

This assay concerns the target T1, C5a Receptor (Homo sapiens, UniProt P21730).
T1 construct: 2.5-25 μg/mL of purified PMNL membrane fragments; from tissue; host or cells: polymorphonuclear leukocyte (PMNL) membrane fragments
T1 sequence (P21730 1-350): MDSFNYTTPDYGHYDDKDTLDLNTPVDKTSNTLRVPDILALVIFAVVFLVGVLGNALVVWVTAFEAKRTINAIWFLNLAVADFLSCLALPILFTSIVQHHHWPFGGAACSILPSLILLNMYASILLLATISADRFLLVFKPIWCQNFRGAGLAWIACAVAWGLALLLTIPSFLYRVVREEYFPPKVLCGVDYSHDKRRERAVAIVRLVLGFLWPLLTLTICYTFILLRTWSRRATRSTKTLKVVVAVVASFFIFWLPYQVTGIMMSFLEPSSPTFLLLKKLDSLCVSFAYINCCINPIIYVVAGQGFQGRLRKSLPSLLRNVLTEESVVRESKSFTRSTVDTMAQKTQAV
Put plainly: Anaphylatoxin receptor binding Ki determination: inhibition of 125I-C5a binding to PMNL membrane fragments. Particulars: 0.03-1 nM 125I-C5a, 2.5-25 μg/mL purified PMNL membrane fragments, filtration; read-out: In vitro C5a Receptor Binding Potency Ki. The procedure:
Specific inhibition of C5a binding activity of representative compounds of the present invention was measured using 0.03-1 nM ^125 I-C5a with 2.5-25 μg/mL of purified PMNL membrane fragments (Borregaard, N.; Heiple, J. M.; Simons, E. R.; and Clark, R. A. J. Cell. Biol. 1983, 97, 52-61.). Free and membrane-bound ligand were separated by filtration.

In the case of `C[C@H](NC(=O)[C@H](CCCCN)NC(=O)[C@@H](N)Cc1ccccc1)C(=O)N[C@@H](CC1CCCCC1)C(=O)NCC(=O)N[C@H](Cc1c[nH]c2ccccc12)C(=O)N[C@H](C)C(=O)N[C@@H](CCCNC(=N)N)C(=O)O` [Example 249, H-Phenylalanyl-Lysyl-Alanyl-{(2S)-2-Amino-3-cyclohexylpropanoyl}-Glycyl-DTryptophyl-DAlanyl-Arginyl-OH] (H-FKA[Cha]G[dW][dA]R-OH), the Ki came to 110 nM. For `CC(C)C[C@@H]1NC(=O)[C@H](CC2CCCCC2)NC(=O)[C@H](CC2CCCCC2)NC(=O)[C@H](C)NC(=O)[C@H](CCCCN)NC(=O)[C@H](NC(=O)c2ccccc2)C(C)(C)SSC[C@H](C(=O)N[C@@H](CCCNC(=N)N)C(=O)O)NC1=O` [Example 279, Benzoyl-DPenicillaminyl*-Lysyl-Alanyl-{(2S)-2-Amino-3-cyclohexylpropanoyl)-{(2S)-2-Amino-3-cyclohexylpropanoyl}-Leucyl-DCysteinyl*-Arginyl-OH] (Bz-[dPen]KA[Cha][Cha]L[dC]R-OH; disulfide 1-7) the value was 4000 nM. The figure for `CC(C)C[C@H](NC(=O)CNC(=O)[C@@H](Cc1ccccc1)NC(=O)[C@H](C)NC(=O)[C@H](CCCCN)NC(=O)[C@@H](N)Cc1ccccc1)C(=O)N[C@H](C)C(=O)N[C@@H](CCCNC(=N)N)C(=O)O` [Example 282, H-Phenylalanyl-Lysyl-Alanyl-DPhenylalanyl-Glycyl-Leucyl-DAlanyl-Arginyl-OH] (H-FKA[dF]GL[dA]R-OH) is 29 nM; for `CC(C)C[C@H](NC(=O)[C@H](C)NC(=O)[C@H](C)NC(=O)[C@H](CCCCN)NC(=O)[C@@H](N)Cc1ccccc1)C(=O)N[C@@H](C)C(=O)N[C@H](C)C(=O)N[C@@H](CCCNC(=N)N)C(=O)O` [Example 295, H-Phenylalanyl-Lysyl-Alanyl-Alanyl-Leucyl-Alanyl-DAlanyl-Arginyl-OH] (H-FKAALA[dA]R-OH) it is 3300 nM; for `CC(C)C[C@H](NC(=O)[C@H](C)NC(=O)[C@H](CC1CCCCC1)NC(=O)[C@H](C)NC(=O)[C@H](CCCCN)NC(=O)[C@@H](N)Cc1ccccc1)C(=O)N(C)[C@H](C)C(=O)N[C@@H](CCCNC(=N)N)C(=O)O` [Example 296, H-Phenylalanyl-Lysyl-Alanyl-{(2S)-2-Amino-3-cyclohexylpropanoyl}-Alanyl-Leucyl-(N-Methyl)DAlanyl-Arginyl-OH] (H-FKA[Cha]AL[dNMeA]R-OH) it is 12 nM.

With `CC(=O)N[C@@H](Cc1ccccc1)C(=O)N[C@@H](CCCCN)C(=O)N[C@@H](C)C(=O)N[C@@H](CC1CCCCC1)C(=O)N[C@@H](C)C(=O)N[C@@H](CC(C)C)C(=O)N[C@H](C)C(=O)N[C@@H](Cc1ccc(O)cc1)C(=O)O` [Example 305, Ac-Phenylalanyl-Lysyl-Alanyl-{(2S)-2-Amino-3-cyclohexylpropanoyl}-Alanyl-Leucyl-DAlanyl-Tyrosyl-OH] (Ac-FKA[Cha]AL[dA]Y-OH), the Ki amounted to 170 nM. For `CC(C)C[C@H](NC(=O)CNC(=O)[C@H](CC1CCCCC1)NC(=O)[C@@H](Cc1ccccc1)NC(=O)[C@H](CCCCN)NC(=O)[C@@H](N)Cc1ccccc1)C(=O)N[C@H](C)C(=O)N[C@@H](CCCNC(=N)N)C(=O)O` [Example 316, H-Phenylalanyl-Lysyl-DPhenylalanyl-{(2S)-2-Amino-3-cyclohexylpropanoyl}-Glycyl-Leucyl-DAlanyl-Arginyl-OH] (H-FK[dF][Cha]GL[dA]R-OH) the value was 170 nM; for `CC(C)C[C@H](NC(=O)[C@H](CC1CCCCC1)NC(=O)[C@H](CC1CCCCC1)NC(=O)[C@H](C)NC(=O)[C@H](CCCCN)NC(=O)[C@@H](N)Cc1cn(C=O)c2ccccc12)C(=O)N[C@H](C)C(=O)N[C@@H](CCCNC(=N)N)C(=O)O` [Example 338, H-Tryptophyl(N-formyl)-Lysyl-Alanyl-{(2S)-2-Amino-3-cyclohexylpropanoyl}-{(2S)-2-Amino-3-cyclohexylpropanoyl}-Leucyl-DAlanyl-Arginyl-OH] (H-W(For)KA[Cha][Cha]L[dA]R-OH), 500 nM.

In the case of `CC(C)C[C@H](NC(=O)[C@H](CC1CCCCC1)NC(=O)[C@H](CC1CCCCC1)NC(=O)[C@H](C)NC(=O)[C@H](CSCCN)NC(=O)[C@@H](N)Cc1ccccc1)C(=O)N[C@H](C)C(=O)N[C@@H](CCCNC(=N)N)C(=O)O` [Example 348, H-Phenylalanyl-(S-2-Aminoethyl)Cysteinyl-Alanyl-{(2S)-2-Amino-3-cyclohexylpropanoyl}-{(2S)-2-Amino-3-cyclohexylpropanoyl}-Leucyl-DAlanyl-Arginyl-OH] (H-FC(Ethyl(2-NH2))A[Cha][Cha]L[dA]R-OH), the Ki was determined as 140 nM. As to `CSCC[C@H](NC(=O)[C@H](CC(=O)O)NC(=O)[C@H](CCCCN)NC(=O)[C@@H](N)Cc1ccc2ccccc2c1)C(=O)N[C@@H](CCC(N)=O)C(=O)N[C@@H](CC(C)C)C(=O)NCC(=O)N[C@@H](CCCNC(=N)N)C(=O)O` [Example 377, H-{3-(2'-Naphthyl)alanyl}-Lysyl-Aspartyl-Methionyl-Glutaminyl-Leucyl-Glycyl-Arginyl-OH] (H-[2Nal]KDMQLGR-OH), the Ki was 1800 nM.

In the case of `CCN[C@@H](Cc1ccccc1)C(=O)N[C@@H](CCCCN)C(=O)N[C@@H](C)C(=O)N[C@@H](CC1CCCCC1)C(=O)N[C@@H](C)C(=O)N[C@@H](CC(C)C)C(=O)N(C)[C@H](C)C(=O)N[C@@H](CCCNC(=N)N)C(=O)O` [Example 402, (N-Ethyl)Phenylalanyl-Lysyl-Alanyl-{(2S)-2-Amino-3-cyclohexylpropanoyl}-Alanyl-Leucyl-(N-Methyl)DAlanyl-Arginyl-OH] (H-[NEtPhe]KA[Cha]AL[dNMeA]R-OH), the Ki turned out to be 11 nM. For `CC(C)C[C@H](NC(=O)[C@H](C)NC(=O)[C@H](CC1CCCCC1)NC(=O)[C@H](C)NC(=O)[C@H](CCCCN)NC(=O)[C@H](Cc1ccccc1)NC(=O)OC(C)(C)C)C(=O)N[C@H](C)C(=O)N[C@@H](CCCNC(=N)N)C(=O)O` [Example 404, tert-Butyloxycarbonyl-Phenylalanyl-Lysyl-Alanyl-{(2S)-2-Amino-3-cyclohexylpropanoyl}-Alanyl-Leucyl-DAlanyl-Arginyl-OH] (Boc-FKA[Cha]AL[dA]R-OH) the value was 130 nM. For `CC(C)C[C@H](NC[C@H](C)NC(=O)[C@H](CC1CCCCC1)NC(=O)[C@H](C)NC(=O)[C@H](CCCCN)NC(=O)[C@@H](N)Cc1ccccc1)C(=O)N[C@H](C)C(=O)N[C@@H](CCCNC(=N)N)C(=O)O` [Example 409, H-phenylalanyl-Lysyl-Alanyl-{(2S)-2-Amino-3-Cyclohexylpropanoyl}-Alanyl-.psi.{CH2 --NH}-Leucyl-DAlanyl-Arginyl-OH] (H-FKA[Cha]-X3) the value was 3800 nM. The figure for `CC(C)C[C@H](NC(=O)[C@H](C)NC(=O)[C@H](CC1CCCCC1)NC(=O)[C@H](C)NC(=O)[C@H](CCCCN)NC(=O)[C@@H](N)Cc1ccccc1)C(=O)N[C@H](C)CN[C@@H](CCCNC(=N)N)C(=O)O` [Example 421, H-Phenylalanyl-Lysyl-Alanyl-{(2S)-2-Amino-3-cyclohexylpropanoyl}-Alanyl-Leucyl-DAlanyl-.psi.{CH2 --NH}-Arginyl-OH] (H-FKA[Cha]AL-X2) is 3200 nM.

With `CSCC[C@H](NC(=O)[C@H](CC(=O)O)NC(=O)[C@H](CCCCN)NC(=O)[C@@H](N)Cc1ccccc1)C(=O)N[C@@H](CCCNC(=N)N)C(=O)N[C@@H](CC(C)C)C(=O)NCC(=O)N[C@@H](CCCNC(=N)N)C(=O)O` [Example 424, H-Phenylalanyl-Lysyl-Aspartyl-Methionyl-Arginyl-Leucyl-Glycyl-Arginyl-OH] (H-FKDMRLGR-OH), the Ki amounted to 480 nM.
